≈ marks a conversion by molar mass, not a printed value. Structures can show the parent of a compound that is named as a salt.
Tests used:
[1] = target: human DGAT2 (hDGAT2) (Homo sapiens (Human), UniProt Q96PD7); assay: In vitro DGAT2 assay, determination of IC50 values for DGAT2 inhibitors; assay type: biochemical; conditions: hDGAT2 membrane fraction; geometric mean
Procedure: Recombinant baculovirus for the FLAG-tagged hDGAT2 was generated in SF9 insect cells using Bac-to-Bac baculovirus expression system (Invitrogen) according to the manufacturer's protocol. For the expression of hDGAT2, SF9 cells (20 L) grown in Sf900II media were infected with hDGAT2 baculovirus at a multiplicity of infection of 1 in a Wave Bioreactor System 20/50P wave bag (GE Healthcare). After 40 hours of infection, the cells were then harvested by centrifugation at 5,000×g. The cell pellets were washed by resuspending in phosphate buffered saline (PBS) and collected by centrifugation at 5,000×g. The cell paste was flash frozen in liquid N2 and stored at −80° C. until needed. All operations below were at 4° C. unless otherwise noted. The cells were resuspended in lysis buffer (50 mM Tris-HCl, pH 8.0, 250 mM sucrose) including 1 mM ethylenediaminetetraacetic acid (EDTA) and the complete protease inhibitor cocktail (Roche Diagnostics) at a ratio of 3 mL buffer per 1 g cell paste. The cells were lysed by dounce homogenizer. The cell debris was removed by centrifugation at 1,000×g for 20 min, and the supernatant was centrifuged at 100,000×g for 1 hour. The resulting pellet was rinsed three times by filling ultracentrifuge tubes to the top with ice cold PBS before decanting. The washed pellet was resuspended with gentle stirring for 1 hour in lysis buffer containing 8 mM 3-[(3-cholamidopropyl)dimethylammonio]-1-propanesulfonate (CHAPS) at a ratio of 1 mL buffer per 1 g of original cell paste and centrifuged again at 100,000×g for 1 hour. The resulting supernatant was aliquotted, flash frozen in liquid N2, and stored at −80° C. until use.
To 1 μL of compounds dissolved in 100% DMSO and spotted at the bottom of each well, 5 μL of 0.04% bovine serum albumin (BSA) (fatty acid free, Sigma Aldrich) was added and the mixture was incubated at room temperature for 15 minutes. hDGAT2 membrane fractions were diluted in 100 mM Hepes-NaOH, pH 7.4, 20 mM MgCl2 containing 200 nM methyl arachidonyl fluorophosphonate (Cayman Chemical; dried from ethyl acetate stock solution under argon gas and dissolved in DMSO as 5 mM stock). 10 μL of this enzyme working solution was added to the plates and incubation continued for 2 hours at room temperature. […] Plates were centrifuged at 2,000×g for 1 minute in an Allegra 6R Centrifuge (Beckman Coulter) and then were sealed again with fresh covers before reading in a 1450 Microbeta Wallac Trilux Scintillation Counter (Perkin Elmer). DGAT2 activity was measured by quantifying the generated product [^14C]tridecanoylglycerol in the upper organic phase. […]

[2] = target: DGAT2 in human hepatocytes (Homo sapiens (Human), UniProt Q96PD7); assay: Determination of IC50 values for DGAT2 inhibitors in human hepatocytes; assay type: cell-based; conditions: cryopreserved human hepatocytes, DGAT1 inhibitor present; geometric mean
Procedure: For evaluation of the effects of DGAT2 inhibitors in a cell-based setting, cryopreserved human hepatocytes (Lot DOO, Celsis, Baltimore, Md.) were thawed and plated onto type I collagen-coated plates according to the manufacturer's instructions. After 18 hours overnight recovery period, the cells were overlayed with media containing 250 μg/mL Geltrex Basement Membrane Matrix (Thermo Fisher). The following day, media was aspirated and replaced with serum-free Williams Media E (Thermo Fisher) containing 400 μM sodium dodecanoate (Sigma-Aldrich, St. Louis, Mo.) and 2 mM GlutaMAX (Thermo Fisher). […] DGAT2 inhibitors were then added to the desired final concentration. After a 15 minute preincubation, 0.2 μCi [^14C(U)]-glycerol (Perkin Elmer) was added to each well followed by a 3 hour incubation. At this point the media was removed, and the cells lysed via orbital shaking in isopropyl alcohol: tetrahydrofuran (9:1) for 15 minutes prior to centrifugation at 3000 rpm for 10 minutes. Radiolabeled lipids were resolved using a solvent system by thin layer chromatography with the solvent consisting of hexanes:diethyl ether:glacial acetic acid (75:23:2, v/v/v). […] The half maximal inhibitory concentrations (IC50 values) were determined by nonlinear regression analysis of the % inhibition dose response curve using GraphPad Prism (GraphPad Software, Inc., La Jolla, Calif.). […]

[3] = Determination of pKa (capillary electrophoresis, Analiza, Inc.); assay type: physicochemical; conditions: mean, read-out: Basic pKa (most basic pKa)
[4] = High throughput determination of intrinsic clearance in human hepatocytes; assay type: in vitro ADME; conditions: human, pooled cryopreserved human hepatocytes (10 donors), high throughput human hepatocyte assay; 0.5 million cells/mL, 1 μM test compound, 37° C.; mean +/− Std Dev; read-out: CLint (μL/min/10^6 cells) (+/− Std Dev)
Procedure: The incubation was carried out at 37° C. […] The samples were centrifuged (Eppendorf, Hauppauge, N.Y.) at 3000 rpm for 5 min at 4° C.

[5] = Intrinsic clearance in human liver microsomes; assay type: in vitro ADME; conditions: human, pooled human liver microsomes (50 donors), pH 7.4, human liver microsome assay; 1 μM test compound, 0.806 mg/mL protein, NADPH, pH 7.4, 37° C.; mean +/− STD Dev; read-out: CLint (μL/min/mg) (+/− STD Dev)
Procedure: The incubations were conducted at 37° C. […] (Sorvall RC 3C Plus, Thermo Scientific, Waltham, Mass.).

[6] = tested on: Western diet fed Sprague-Dawley rats; assay: Rat western diet model: in vivo effects on plasma and hepatic triglyceride levels; conditions: compared with chow-fed vehicle animals
From the text: The rat western diet model was utilized to assess the effects of DGAT2 inhibitor treatment on plasma triglyceride production and hepatic triglyceride content in vivo. Male Sprague-Dawley rats were housed under standard laboratory conditions on a 12-hour light, 12-hour dark cycle (lights on at 06:00). Two weeks prior to study start animals were placed on a high-fat, high sucrose, high-cholesterol diet (D12079b, provided by Research Diets, New Brunswick, N.J.). This diet provides ˜43% of kilocalories from carbohydrate and ˜41% of kilocalories from fat. Example 4 was administered orally as a solution (10 mL/kg dosing volume) in 0.5% methylcellulose in deionized water, pH 7.0-7.5 (methylcellulose was obtained from Sigma-Aldrich, St. Louis, Mo.). […] Plasma TG levels were determined using a Roche Hitachi Chemistry analyzer according to the manufacturer's instructions (Roche Diagnostics Corporation, Indianapolis, Ind.) and data was analyzed using GraphPad Prism (GraphPad Software, Inc., La Jolla, Calif.). […] The triglyceride assay was performed through absorbance and reported as milligrams per deciliter. […]
FIG. 4 plots the multiple dose effects of Example 4 on Plasma Triglyceride in Western Diet Fed Sprague-Dawley Rats where plasma triglyceride levels were determined from blood drawn from the lateral tail vein 2-hours following the final dose of Example 4. […]

[7] = Thermodynamic solubility in various biorelevant media; assay type: physicochemical; conditions: PBS, pH 6.8; crystalline solid
Procedure: The solubility of active pharmaceutical ingredients is an important characteristic in determining biological performance and ease of formulation during drug development, with high solubility being preferred (Klein, S. 2010, The AAPS Journal, 12, 397-406; Di, L., et al 2012, Drug Disc. Today, 17. 486-495). A test sample of crystalline solid (˜7 mg) was combined in a vial with 1 mL of the relevant buffer solution and the mixture vortexed to combine. If the solid dissolved completely, additional solid was added with vortexing until a saturated solution was obtained. The saturated solution/solid mixture was capped and subjected to temperature cycling as follows: 1 min at 25° C., 8 h at 40° C., 5 h at 15° C. and 12 h at 25° C. The mixture was filtered in a centrifugal filtration device (0.22 μm PVDF filter, MilliporeSigma, Milwaukee, Wis.) at 13,000 rpm and the concentration of the test compound in the filtrate was determined by HPLC/UPLC with reference to a three point standard curve. Phosphate buffered saline (PBS, pH 6.8, 50 mM phosphate buffer, 250 mM NaCl). Simulated gastric fluid (SGN pH 1.2, USP recipe). Fasted state simulated intestinal fluid (FaSSIF, 3 mM sodium taurocholate, 0.75 mM phospholipid from soybean lecithin, 50 mM phosphate buffer, ionic strength adjusted to 250 mM with NaCl, pH 6.8) and fed state simulated intestinal fluid (FeSSIF, 15 mM sodium taurocholate, 3.75 mM phospholipid from soybean lecithin, 144 mM acetic acid, 50 mM phosphate buffer, ionic strength adjusted to 250 mM with NaCl, pH 6.8).

Chain of human DGAT2 (hDGAT2) (Q96PD7 whole entry): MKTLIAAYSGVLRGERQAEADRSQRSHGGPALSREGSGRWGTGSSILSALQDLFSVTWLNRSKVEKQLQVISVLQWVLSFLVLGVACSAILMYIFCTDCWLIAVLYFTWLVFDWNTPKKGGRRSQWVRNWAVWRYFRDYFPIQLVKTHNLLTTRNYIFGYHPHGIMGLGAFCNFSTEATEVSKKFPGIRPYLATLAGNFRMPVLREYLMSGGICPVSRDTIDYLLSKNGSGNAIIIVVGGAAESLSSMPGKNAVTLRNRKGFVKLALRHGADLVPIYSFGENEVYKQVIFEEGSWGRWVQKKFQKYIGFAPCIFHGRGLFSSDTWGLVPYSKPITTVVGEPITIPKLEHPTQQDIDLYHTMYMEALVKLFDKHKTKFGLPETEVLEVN
Chain of DGAT2 in human hepatocytes (Q96PD7 whole entry): as above

IC50 [1]	IC50 [2]	pKa [3]	hepatocyte CLint at 1 μM [4]	microsomal CLint at 1 μM [5]	Solubility [7]	Structure (SMILES)	circulating triglyceride response, resulting levels [6]
40 nM	23 nM	8.1	< 1.9 µL/min/1e6 cells	< 7 µL/min/mg	–	CCOc1cccnc1Oc1cncc(-c2ncc(C(=O)N[C@@H]3CNCC[C@@H]3F)cn2)c1 [Example 3, 2-{5-[(3-Ethoxypyridin-2-yl)oxy]pyridin-3-yl}-N-[(3R,4S)-4-fluoropiperidin-3-yl]pyrimidine-5-carboxamide, bis(trifluoroacetate) Salt]	–
–	–	–	–	–	580 µg/mL (≈ 1320 µM)	CCOc1cccnc1Oc1cncc(-c2ncc(C(=O)N[C@@H]3CNC[C@@H](F)C3)cn2)c1 [Example 4, 2-{5-[(3-Ethoxypyridin-2-yl)oxy]pyridin-3-yl}-N-[(3S,5S)-5-fluoropiperidin-3-yl]pyrimidine-5-carboxamide]	approached those of the chow-fed vehicle animals

— patent US11471458B2, “Diacylglycerol acyl transferase 2 inhibitor” (Pfizer Inc., priority 2019, dated 2022)
